In publication doi:10.1101/659573v1 (bioRxiv, 2019):

Test system: mucin
Assay: Bulk diffusion of FITC-peptides and fluorescein salt in mucin
Type: in vitro ADME
Conditions: DPBS/Dmucin

O=C([O-])c1ccccc1-c1c2ccc(=O)cc-2oc2cc([O-])ccc12.[Na+].[Na+] [Fluorescein salt, fluorescein sodium salt]
fold decreased diffusion in mucin compared to saline: 3 fold
